Data: patent publication US20170044100A1, “INHIBITORS OF DRUG-RESISTANT MYCOBACTERIUM TUBERCULOSIS” (THE JOHNS HOPKINS UNIVERSITY, priority 2014, published 2017)
Values after ≈ are worked out from the molar mass of the structure shown. Like-named read-outs stand apart in the source and are kept apart here.

Experiments:
[1] = system: M. tuberculosis H37Rv; assay: microbe, parasite or virus in culture; assay type: cell-based, Mycobacterium tuberculosis; parameters: MICBD / MBCBD: unit not given here
[2] = system: M. tuberculosis strain H37Rv; assay: microbe, parasite or virus in culture; assay type: cell-based, Mycobacterium tuberculosis; parameters: MICMABA: unit not given here
[3] = system: Vero cells; assay: Cytotoxicity assay on Vero cells (alamar blue); details: for IC50: Chlorocebus sabaeus, Vero
[4] = Cytotoxicity assay on Vero cells (alamar blue); details: African green monkey, Vero cells (ATCC CCL-81)
[5] = system: M. tuberculosis H37Rv; assay type: in vivo, BALB/c mice
[6] = system: M. tuberculosis H37Rv; assay type: cell-based, Mycobacterium tuberculosis; details: 4× MIC
[7] = system: V4207 (drug susceptible strain of M. tuberculosis); assay: microbe, parasite or virus in culture; assay type: cell-based; details: Mycobacterium tuberculosis, MABA, read-out: MIC V4207 (DS)
[8] = Mycobacterium tuberculosis, H37RV
[9] = Mycobacterium tuberculosis, parental H37Rv strain, read-out: MIC for H37Rv
[10] = Mycobacterium tuberculosis, H37RV, read-out: MIC for H37Rv

Molecule: O=C(NC1CCCCC1)c1cc2ccccc2[nH]1 [Compound 26, N-Cyclohexyl-1H-indole-2-carboxamide]
- MICBD ([1]; H37Rv, broth dilution, Table 9): >128
- MICMABA ([2]; H37Rv, MABA, Table 9): 128

Molecule: N-(2,3,5 -methyl, 4-dimethyl)-6-bromo-1H-indole-2-carboxamide [BB]
- MICMABA ([2]; H37Rv, MABA, Table 9): 0.0039- 0.0078

Molecule: Capreomycin
- MIC for H37Rv ([2]; parental H37Rv strain): 1 µg/mL

Molecule: Cc1cc(C)c2cc(C(=O)NC3C4CC5CC(C4)CC3C5)[nH]c2c1 (stereo not drawn) [Compound 14, N-(2-Adamantyl)-4,6-dimethyl-1H-indole-2-carboxamide]
- MICMABA ([2]; H37Rv, MABA, Table 9): 0.0039
- MIC [2, 8]: 0.012 µM
- IC50 ([3]; read-out: IC50 Vero Cells): > 64 µg/mL
- IC50 at 72 h [4]: > 200 µM

Molecule: NCC[C@H](O)C(=O)N[C@@H]1C[C@H](N)[C@@H](O[C@H]2O[C@H](CN)[C@@H](O)[C@H](O)[C@H]2O)[C@H](O)[C@H]1O[C@H]1O[C@H](CO)[C@@H](O)[C@H](N)[C@H]1O [Amikacin]
- MIC [2, 9]: 1 µg/mL

Molecule: NNC(=O)c1ccncc1 [Isoniazid, reference compound]
- MICMABA ([2]; H37Rv, MABA, Table 9): 0.04
- MIC [2, 8]: 0.29 µM
- MIC [2, 9]: 0.04 µg/mL
- Mean lung CFU counts (standard deviation), Day 7 ([5]; isoniazid 10 mg/kg oral gavage daily (5 days per week), Day 7): 5.508 (0.124)
- Mean lung CFU counts (standard deviation), Day 14 ([5]; isoniazid 10 mg/kg oral gavage daily, Day 14): 5.266 (0.089)
- Mean lung CFU counts (standard deviation), Day 28 ([5]; isoniazid 10 mg/kg oral gavage daily, Day 28): 4.561 (0.088)

Molecule: Cc1cc(C)c2cc(C(=O)N(C)C3CCCCC3)[nH]c2c1 [Compound 16, N-Cyclohexyl-N,4,6-trimethyl-/H-indole-2-carboxamide]
- MICBD [1]: 128
- MIC [2]: 450 µM
- MICMABA [2]: 32

Molecule: O=C(NC1CCCCCCC1)c1cc2c(Cl)cc(Cl)cc2[nH]1 [Compound 70, N-Cyclooctyl-4,6-dichloro-1H-indole-2-carboxamide]
- MICMABA ([2]; H37Rv, MABA, Table 9): 0.0039

Molecule: Cc1cc(C)c2c(C(=O)NC34CC5CC(CC(C5)C3)C4)c[nH]c2c1 [Compound 43, N-(1-Adamantyl)-4,6-dimethyl-1H-indole-3-carboxamide]
- MICMABA ([2]; H37Rv, MABA, Table 9): >64

Molecule: Cc1cc(C)c2cc(C(=O)Nc3ccncc3)[nH]c2c1 [Compound 6, N-(4-Pyridinyl)-4,6-dimethyl-1H-indole-2-carboxamide]
- MICBD ([1]; H37Rv, broth dilution, Table 9): 64
- MICMABA ([2]; H37Rv, MABA, Table 9): 32
- MIC [2, 8]: 240 µM

Molecule: O=C(NC1CCCCCCC1)c1cc2c(F)cc(F)cc2[nH]1 [Compound 29, N-Cyclooctyl-4,6-difluoro-1H-indole-2-carboxamide]
- activity in comparison to the 4,6-dimethyl analog (1h) ([2]; H37Rv MIC relative to 1h): 8 fold
- MICMABA ([2]; H37Rv, MABA, Table 9): 0.031

Molecule: CC[C@@H](CO)NCCN[C@@H](CC)CO [Ethambutol]
- MIC [2, 9]: 1 µg/mL

Molecule: NC[C@H]1O[C@H](O[C@H]2[C@H](O)[C@@H](O[C@H]3O[C@H](CO)[C@@H](O)[C@H](N)[C@H]3O)[C@H](N)C[C@@H]2N)[C@H](O)[C@@H](O)[C@@H]1O [Kanamycin, reference compound]
- MIC [2, 10]: 2 µg/mL

Molecule: COc1c(N2C[C@@H]3CCCN[C@@H]3C2)c(F)cc2c(=O)c(C(=O)O)cn(C3CC3)c12 [Moxifloxacin, reference compound]
- MIC [2, 9]: 0.0625 to 0.125 µg/mL

Molecule: Cc1ccc(NC(=O)c2cc3ccccc3[nH]2)cc1F [Compound 27, N-(3-Fluoro-4-methylphenyl)-1H-indole-2-carboxamide]
- MICBD ([1]; H37Rv, broth dilution, Table 9): 128
- MICMABA ([2]; H37Rv, MABA, Table 9): 128

Molecule: Cc1cc(C)c2c(C(=O)NC3CCCCCCC3)c[nH]c2c1 [Compound 42, N-Cyclooctyl-4,6-dimethyl-1H-indole-3-carboxamide]
- MICMABA ([2]; H37Rv, MABA, Table 9): >64

Molecule: Cc1cc(C)c2cc(C(=O)NC3CCCN(C)CC3)[nH]c2c1 (stereo not drawn) [Compound 9, N-(1-Methyl-4-azepanyl)-4,6-dimethyl-1H-indole-2-carboxamide]
- MICMABA ([2]; H37Rv, MABA, Table 9): 128
- MIC [2, 8]: 428 µM

Molecule: Cc1cc(C)c2cc(C(=O)Nc3ccc(C)c(F)c3)[nH]c2c1 [Compound 5, N-(3-Fluoro-4-methylphenyl)-4,6-dimethyl-1H-indole-2-carboxamide]
- MBCBD ([1]; H37Rv, broth dilution, Table 9): 8
- MICBD ([1]; H37Rv, broth dilution, Table 9): 0.5
- MICMABA ([2]; H37Rv, MABA, Table 9): 0.25
- MIC [2, 8]: 1.7 µM
- IC50 ([3]; read-out: IC50 Vero Cells): > 64 µg/mL
- IC50 at 72 h [4]: > 200 µM

Molecule: Cc1cc(C)c2cc(C(=O)NCC3CCCCC3)[nH]c2c1 [Compound 15, N-(Cyclohexylmethyl)-4,6-dimethyl-1H-indole-2-carboxamide]
- MBCBD ([1]; H37Rv, broth dilution, Table 9): 0.25
- MICBD ([1]; H37Rv, broth dilution, Table 9): 0.25
- MICMABA ([2]; H37Rv, MABA, Table 9): 0.25
- MIC [2, 8]: 0.88 µM
- IC50 ([3]; read-out: IC50 Vero Cells): > 64 µg/mL
- IC50 at 72 h [4]: > 200 µM

Molecule: Cc1cc(C)c2c(C(=O)NC3CCCCCC3)c[nH]c2c1 [Compound 41, N-Cycloheptyl-4,6-dimethyl-1H-indole-3-carboxamide]
- MICMABA ([2]; H37Rv, MABA, Table 9): >64

Molecule: Cc1cc(C)c2cc(C(=O)NC3CCN(C(C)C)CC3)[nH]c2c1 [Compound 8, N-(1-Isopropyl-4-piperidinyl)-4,6-dimethyl-1H-indole-2-carboxamide]
- MICMABA ([2]; H37Rv, MABA, Table 9): 64
- MIC [2, 8]: 204 µM

Molecule: O=C(NC12CC3CC(CC(C3)C1)C2)c1cc2ccc(O)cc2[nH]1 [Compound 32, N-(1-Adamantyl)-6-hydroxy-1H-indole-2-carboxamide]
- MICMABA ([2]; H37Rv, MABA, Table 9): 2
- IC50 ([3]; read-out: IC50 Vero Cells): 16 µg/mL (≈ 51.5 µM)

Molecule: COc1ccc2cc(C(=O)NC34CC5CC(CC(C5)C3)C4)[nH]c2c1 [Compound 30, N-(1-Adamantyl)-6-methoxy-1H-indole-2-carboxamide]
- MICMABA ([2]; H37Rv, MABA, Table 9): 0.25
- IC50 ([3]; read-out: IC50 Vero Cells, Vero cells, Table 9): 64 µg/mL (≈ 197 µM)

Molecule: CO[C@H]1/C=C/O[C@@]2(C)Oc3c(C)c(O)c4c(O)c(c(/C=N/N5CCN(C)CC5)c(O)c4c3C2=O)NC(=O)/C(C)=C\C=C\[C@H](C)[C@H](O)[C@@H](C)[C@@H](O)[C@@H](C)[C@H](OC(C)=O)[C@@H]1C [Rifampin]
- MIC [2, 10]: 0.125 µg/mL

Molecule: Cc1cc(C)c2cc(C(=O)NC3CCCCCC3)[nH]c2c1 [Compound 11, N-Cycloheptyl-4,6-dimethyl-1H-indole-2-carboxamide]
- MBCBD ([1]; H37Rv, broth dilution, Table 9): 0.0312
- MICBD ([1]; H37Rv, broth dilution, Table 9): 0.0156
- MBC ([1]; Mycobacterium tuberculosis, H37RV, read-out: minimum bactericidal concentration (MBC)): 0.0313 µg/mL (≈ 0.11 µM)
- time to kill at least 4 log10 CFUs [6]: ≤ 3 days
- MICMABA ([2]; H37Rv, MABA, Table 9): 0.0156
- MIC [2, 8]: 0.055 µM
- MIC ([2]; Mycobacterium tuberculosis, control strains H37Rv and V4207, read-out: MIC): 0.0156 to 0.0313 µg/mL
- MIC [2, 9]: 0.0156 to 0.0313 µg/mL
- MIC [7]: 0.11 µM (≈ 0.0313 µg/mL)
- IC50 ([3]; read-out: IC50 Vero Cells): > 64 µg/mL
- IC50 ([3]; read-out: IC50 for Vero cell viability): > 64 µg/mL
- Selectivity Index ([3]; Vero IC50 versus MIC, Table 9): >2048
- selectivity index ([3]; toxicity versus MIC): > 2048
- IC50 at 72 h [4]: > 200 µM

Molecule: CC(C)=CCC/C(C)=C/CNCCNC1C2CC3CC(C2)CC1C3 (stereo not drawn) [SQ109]
- MIC [2, 9]: 0.25 µg/mL

Molecule: Cc1cc(C)c2cc(C(=O)NC3CC3)[nH]c2c1 [Compound 10, N-Cyclopropyl-4,6-dimethyl-1H-indole-2-carboxamide]
- MICBD ([1]; H37Rv, broth dilution, Table 9): 128
- MICMABA ([2]; H37Rv, MABA, Table 9): 64
- MIC [2, 8]: 561 µM

Molecule: Cc1cc(C)c2c(C(=O)NC3C4CC5CC(C4)CC3C5)c[nH]c2c1 (stereo not drawn) [Compound 44, N-(2-Adamantyl)-4,6-dimethyl-1H-indole-3-carboxamide]
- MICMABA ([2]; H37Rv, MABA, Table 9): >64

Molecule: Cc1cc(C)c2cc(C(=O)NC3CCN(C)CC3)[nH]c2c1 [Compound 7, N-(1-Methyl-4-piperidinyl)-4,6-dimethyl-1H-indole-2-carboxamide]
- MICMABA [2]: 128
- MIC [2, 8]: 448 µM

Molecule: Cc1cc(C)c2cc(C(=O)N3CCCCC3)[nH]c2c1 [Compound 17, (4,6-Dimethyl-11-1-indo1-2-yl)(piperidin-1-yl)methanone]
- MIC [2]: >499 µM

Molecule: BM212
- MIC for H37Rv ([2]; parental H37Rv strain): 2 µg/mL

Molecule: C[C@H]1COc2c(N3CCN(C)CC3)c(F)cc3c(=O)c(C(=O)O)cn1c23 [Levofloxacin, reference compound]
- MIC [2, 9]: 0.25 µg/mL

Molecule: Cc1cc(C)c2cc(C(=O)NC3CCCCC3)n(C)c2c1 [Compound 18, N-Cyclohexyl-1,4,6-trimethyl-11-1-indole-2-carboxamide]
- MICBD ([1]; H37Rv, broth dilution, Table 9): 128
- MICMABA [2]: 128
- MIC [2, 8]: 450 µM

Molecule: Cc1cc(C)c2cc(C(=O)NC34CC5CC(CC(C5)C3)C4)[nH]c2c1 [Compound 13, N-(1-Adamantyl)-4,6-dimethyl-1H-indole-2-carboxamide]
- MICMABA ([2]; H37Rv, MABA, Table 9): 0.0019
- MIC [2, 8]: 0.012 µM
- IC50 ([3]; read-out: IC50 Vero Cells): > 64 µg/mL
- IC50 at 72 h [4]: > 200 µM
